Usually thermodynamic solubility stands for solubility found after equilibrating the solid with the medium. The term CLint scaled denotes a measure of how fast metabolising enzymes remove a compound, apart from limits set by blood flow.

Read-outs that look alike come from different tables or passages of the source.

Consider 2 compounds from patent publication US11434222B2, “MAGL inhibitors” (H. LUNDBECK A/S, priority 2020, dated 2022).

The test system of data set [1] is tonic hind limb extensor seizure (MEST). Nature of the data set: Maximal electroshock seizure threshold (MEST) model in the rat. In kind it is in vivo. The settings on record: 10 mg/kg p.o., 240 min pre-treatment, FIG. 3 and FIG. 4. The protocol: In the MEST model, a low-intensity electrical current of high frequency and short duration is applied to induce tonic convulsions.
Animals were randomly assigned to vehicle, compound treatment or Lamotrigine dose groups. Animals were dosed at 5 mL/kg according to treatment groups (n=12 or 16/group), with either vehicle (0.5% MC) p.o. for Example 6, vehicle (10% HP-b-CD) for Example 8, test compound at 10 mg/kg p.o. 240 min pre-treatment time, or Lamotrigine p.o. 360 min pre-treatment time.
Rats were individually assessed for production of a tonic hind limb extensor seizure following a single corneally delivered electroshock of 0.3 second duration, using an ‘up and down method’ of shock titration (Kimball A W et al., 1957). Thus, the first rat within a treatment group was given a shock at the expected or estimated CC50 current (current producing tonic hind limb extensor seizures in 50% of animals). […] This procedure was continued for all rats within a treatment group. Induction of seizure was measured as an all-or-nothing effect scored as either present (+) or absent (0) for each animal. […]
Significant differences between drug-treated animals and controls were assessed according to Litchfield and Wilcoxon (1949) or One-Way ANOVA followed by Dunnett's multiple comparisons test.
A general note: In the maximal electroshock model the usual endpoint is tonic extension of the hind limbs.

A short description of data set [2]: Free fraction in rat plasma and brain homogenate by equilibrium dialysis. In kind it is in vitro ADME. Here is the method: Brain disposition was evaluated in male Sprague-Dawley rats (n=3, standard body weight). Briefly, test compound was formulated as a simple suspension, in 0.5% HPMC in water, then administered by oral gavage (5 mg/kg, 5 mL/kg). Four hours post dosing, rats were sacrificed, and terminal blood and brain samples were taken. Blood was obtained via cardiac puncture (0.1 mL) and was added into 0.4 mL CH3CN for precipitation immediately. The samples were stored at −75+/−15° C. prior to analysis. Brain tissue samples were collected after animals were fully exsanguinated, and the tissues were washed with cold saline quickly. After sectioning, brain sections were immediately frozen in liquid nitrogen and stored at −75+/−15° C. prior to analysis. Blood and brain samples were analyzed by LC/MS/MS using an optimized analytical method. Concentrations of test compound in blood and brain were quantified against matrix matched calibration standards. The total blood, plasma, and brain concentration data are presented in Table 2 alongside the calculated brain Kp (total brain concentration:total plasma concentration ratio), the calculated brain kp,uu (unbound brain concentration:unbound plasma concentration ratio), the free fractions in rat plasma and brain, and the in vitro rat blood to plasma distribution profile. The total plasma concentration data were calculated from the total blood concentration data using rat blood to plasma ratio which was measured in vitro (1 μM test compound). For kp,uu determination, the free fraction in rat plasma and brain homogenate were measured in vitro by standard equilibrium dialysis (1 μM test compound and 6 h equilibration against buffer pH 7.4; for rat plasma analysis, 100 mM stock solution of diisopropyl fluorophosphate was added to the pre-warmed rat plasma prior to adding test article).
For orientation: Equilibrium dialysis compares concentrations on both sides of a semipermeable membrane.

The nature of data set [3]: Thermodynamic solubility in PBS. In kind it is physicochemical. The settings on record: aqueous buffer, thermodynamic from solid; PBS pH 7.4; 24 hours at RT. The protocol: The thermodynamic solubility of test article was determined in PBS at pH 7.4 in duplicate. The test article (1.5 mg) in PBS was incubated for 24 hours at RT with shaking at 1100 rpm. Sample was then filtered using a vacuum manifold, diluted, and analyzed by LC-MS/MS. Chromatographic conditions: Phenomenex Synergi 4μ Hydro-PR 80A column (2.0×30 mm) coupled with pre-guard column; mobile phase=0.1% formic acid in acetonitrile and 0.1% formic acid in water; flowrate=0.65 mL/min; column temperature=40 degrees C.; injection volume: 10 μL.
Mobile phase: 0.1% formic acid in acetonitrile (A) and 0.1% formic acid in water (B)
Mass conditions: Turbo spray ion source; ESI ionization model; MRM scan type; Collison gas=6 L/min; Curtain gas=30 L/min; Nebulize gas=50 L/min; Auxiliary gas=50 L/min; Temperature=500 degrees C.; Ion spray voltage=+5500 v (positive MRM).
The filtered solution was analyzed and quantified against a standard of known concentration in DMSO using UPLC coupled with mass spectral peak identification and quantitation. Solubility values of the test articles were calculated using Microsoft Excel as follows (DF is the dilution factor): […]

The nature of data set [4]: In vitro human hepatocyte stability. The class given is in vitro ADME. The settings on record: cryopreserved human hepatocytes (pooled donor), human hepatocytes 0.5×10^6 cells/mL, read-out: Scaled-up unbound CLint.
Where [5] appears, read: rat brain homogenate, buffer pH 7.4, read-out: Rat brain free fraction.
Setting [6] is: rat plasma, buffer pH 7.4, read-out: Rat plasma free fraction.

On to `O=C(Nc1cccnn1)[C@H]1CC12CCN(C(=O)OC(C(F)(F)F)C(F)(F)F)CC2` [Example 6, 1,1,1,3,3,3-hexafluoropropan-2-yl (S)-1-(pyridazin-3-ylcarbamoyl)-6-azaspiro[2.5]octane-6-carboxylate], for which the “anticonvulsant activity in the MEST (seizure threshold CC50)” value in data set [1] was “anticonvulsant activity”. For the same compound, the fraction unbound at 6 h, 1 μM in data set [2] (setting [5]) is 0.04; in data set [2] (setting [6]) it was 0.055. The solubility (thermodynamic) at 24 h in data set [3] was determined as 71.5 µg/mL. The intrinsic metabolic clearance (CLint scaled) at 1 μM in data set [4] amounted to 5.79 mL/min/kg.

Regarding `O=C(NC1CCOCC1)[C@H]1CC12CCN(C(=O)OC(C(F)(F)F)C(F)(F)F)CC2` [Example 8, 1,1,1,3,3,3-hexafluoropropan-2-yl (S)-1-[(oxan-4-yl)carbamoyl]-6-azaspiro[2.5]octane-6-carboxylate], the “anticonvulsant activity in the MEST (seizure threshold CC50)” value in data set [1] is reported as “anticonvulsant activity”. In addition, the fraction unbound at 6 h, 1 μM was found to be 0.167 in data set [2] (setting [5]) and 0.427 in data set [2] (setting [6]). Besides, the thermodynamic solubility at 24 h in data set [3] was determined as 606 µg/mL. Also, the CLint scaled at 1 μM in data set [4] turned out to be 7.75 mL/min/kg.
